One block for each compound: values may come before it. The source made the active and inactive calls.
What was measured:
[1] = HEK-293T viability loss after treatment – luminescence, T-cell screen hits, cytotoxicity control for TCR NF-kB inhibitor project, dose response (AID 489026); type: functional, cell-based;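 also: cells exposed to compound about 14 hours before the viability readout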
Beta-galactosidase = Beta-galactosidase (Escherichia coli, UniProt Q8VNN2); assay: Dose response counterscreen for EBI2 assay utilizing the enzyme, b-galactosidase.; type: functional
Chain of Beta-galactosidase (Q8VNN2 whole entry): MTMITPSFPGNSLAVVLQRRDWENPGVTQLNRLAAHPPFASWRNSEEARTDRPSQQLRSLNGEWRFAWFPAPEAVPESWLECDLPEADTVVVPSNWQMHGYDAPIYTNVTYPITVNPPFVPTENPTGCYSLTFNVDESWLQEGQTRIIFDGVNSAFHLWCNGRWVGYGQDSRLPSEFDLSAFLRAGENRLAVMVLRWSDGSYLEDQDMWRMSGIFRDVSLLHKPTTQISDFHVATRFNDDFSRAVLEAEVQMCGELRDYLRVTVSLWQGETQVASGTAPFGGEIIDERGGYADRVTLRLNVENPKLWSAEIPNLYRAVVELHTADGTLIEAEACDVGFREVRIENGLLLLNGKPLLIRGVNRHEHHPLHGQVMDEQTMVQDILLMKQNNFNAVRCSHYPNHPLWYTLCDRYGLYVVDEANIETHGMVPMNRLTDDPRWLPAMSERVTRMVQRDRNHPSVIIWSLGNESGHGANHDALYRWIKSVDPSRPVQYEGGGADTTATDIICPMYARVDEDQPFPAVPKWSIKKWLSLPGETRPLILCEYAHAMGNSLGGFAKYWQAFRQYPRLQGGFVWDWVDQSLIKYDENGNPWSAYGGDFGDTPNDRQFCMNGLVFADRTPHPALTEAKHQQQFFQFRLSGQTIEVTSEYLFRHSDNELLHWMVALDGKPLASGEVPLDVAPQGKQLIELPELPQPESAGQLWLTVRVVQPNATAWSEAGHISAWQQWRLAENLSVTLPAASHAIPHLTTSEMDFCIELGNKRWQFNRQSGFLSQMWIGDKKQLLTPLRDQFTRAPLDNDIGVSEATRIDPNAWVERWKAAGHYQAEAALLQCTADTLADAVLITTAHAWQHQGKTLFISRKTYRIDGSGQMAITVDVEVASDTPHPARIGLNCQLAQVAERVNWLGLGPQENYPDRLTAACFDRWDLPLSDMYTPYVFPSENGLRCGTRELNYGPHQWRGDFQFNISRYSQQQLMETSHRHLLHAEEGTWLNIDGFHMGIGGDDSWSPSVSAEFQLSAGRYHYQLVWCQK

[2] = biological target: T1, DNA repair protein RAD52 homolog (Homo sapiens, UniProt P43351); type: functional, biochemical
T1 sequence (P43351 whole entry): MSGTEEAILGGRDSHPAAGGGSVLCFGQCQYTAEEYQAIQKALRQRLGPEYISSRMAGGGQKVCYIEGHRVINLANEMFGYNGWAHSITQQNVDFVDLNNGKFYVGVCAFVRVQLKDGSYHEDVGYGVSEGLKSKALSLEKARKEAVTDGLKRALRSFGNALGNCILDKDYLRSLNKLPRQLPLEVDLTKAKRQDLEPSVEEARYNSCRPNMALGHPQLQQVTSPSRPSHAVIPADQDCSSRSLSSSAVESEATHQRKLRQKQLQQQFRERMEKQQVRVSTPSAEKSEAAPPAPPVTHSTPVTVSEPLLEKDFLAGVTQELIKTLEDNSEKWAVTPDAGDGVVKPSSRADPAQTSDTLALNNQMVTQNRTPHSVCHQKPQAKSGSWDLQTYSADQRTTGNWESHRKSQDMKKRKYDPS

Aminopeptidase N = biological target: T2, Aminopeptidase N (Plasmodium falciparum FcB1/Columbia, UniProt O96935); assay: malaria alanyl aminopeptidase activity blockers – biochemical, fluorogenic H-Leu-NHMec substrate, 1536-well (AID 1445); parameters: species or system Plasmodium falciparum 3D7, 3D7
T2 sequence (O96935 whole entry): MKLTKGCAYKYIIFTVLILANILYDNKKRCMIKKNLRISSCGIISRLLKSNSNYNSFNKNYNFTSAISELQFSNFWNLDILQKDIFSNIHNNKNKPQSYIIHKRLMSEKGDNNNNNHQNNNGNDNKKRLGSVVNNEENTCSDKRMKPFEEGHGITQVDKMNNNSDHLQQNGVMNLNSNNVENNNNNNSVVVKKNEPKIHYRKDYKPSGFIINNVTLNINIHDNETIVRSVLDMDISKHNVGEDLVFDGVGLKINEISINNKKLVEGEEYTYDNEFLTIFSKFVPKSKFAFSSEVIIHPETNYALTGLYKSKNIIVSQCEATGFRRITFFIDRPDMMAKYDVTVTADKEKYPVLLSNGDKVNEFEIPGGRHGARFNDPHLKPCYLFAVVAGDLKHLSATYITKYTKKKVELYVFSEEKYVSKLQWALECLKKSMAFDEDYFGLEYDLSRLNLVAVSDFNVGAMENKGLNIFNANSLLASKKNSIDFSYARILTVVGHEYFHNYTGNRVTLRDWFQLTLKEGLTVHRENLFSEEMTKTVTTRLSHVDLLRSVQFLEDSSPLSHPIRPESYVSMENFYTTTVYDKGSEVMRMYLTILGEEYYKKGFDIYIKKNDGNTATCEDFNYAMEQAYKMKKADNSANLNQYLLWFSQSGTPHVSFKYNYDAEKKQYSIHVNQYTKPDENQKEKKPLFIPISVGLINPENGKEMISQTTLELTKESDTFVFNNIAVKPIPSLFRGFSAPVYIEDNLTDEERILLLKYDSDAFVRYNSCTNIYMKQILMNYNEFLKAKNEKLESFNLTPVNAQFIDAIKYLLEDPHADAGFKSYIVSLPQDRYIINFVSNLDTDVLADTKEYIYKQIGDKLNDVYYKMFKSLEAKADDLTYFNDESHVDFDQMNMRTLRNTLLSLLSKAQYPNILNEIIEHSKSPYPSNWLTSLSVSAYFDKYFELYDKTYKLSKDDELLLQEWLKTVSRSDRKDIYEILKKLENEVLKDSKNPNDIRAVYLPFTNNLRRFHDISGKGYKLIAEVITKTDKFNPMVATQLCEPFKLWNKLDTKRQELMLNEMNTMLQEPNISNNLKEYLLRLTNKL

[3] = biological target: SWI/SNF-related matrix-associated actin-dependent regulator of chromatin subfamily A member 2 (Homo sapiens, UniProt P51531); assay: Luminescence-based cell-based high throughput dose response assay to identify activators of the function of SWI/SNF related, matrix associated, actin dependent regulator of chromatin, subfamily a, member 2 (SMARCA2, BRM).; type: functional
Chain of SWI/SNF-related matrix-associated actin-dependent regulator of chromatin subfamily A member 2 (P51531 whole entry): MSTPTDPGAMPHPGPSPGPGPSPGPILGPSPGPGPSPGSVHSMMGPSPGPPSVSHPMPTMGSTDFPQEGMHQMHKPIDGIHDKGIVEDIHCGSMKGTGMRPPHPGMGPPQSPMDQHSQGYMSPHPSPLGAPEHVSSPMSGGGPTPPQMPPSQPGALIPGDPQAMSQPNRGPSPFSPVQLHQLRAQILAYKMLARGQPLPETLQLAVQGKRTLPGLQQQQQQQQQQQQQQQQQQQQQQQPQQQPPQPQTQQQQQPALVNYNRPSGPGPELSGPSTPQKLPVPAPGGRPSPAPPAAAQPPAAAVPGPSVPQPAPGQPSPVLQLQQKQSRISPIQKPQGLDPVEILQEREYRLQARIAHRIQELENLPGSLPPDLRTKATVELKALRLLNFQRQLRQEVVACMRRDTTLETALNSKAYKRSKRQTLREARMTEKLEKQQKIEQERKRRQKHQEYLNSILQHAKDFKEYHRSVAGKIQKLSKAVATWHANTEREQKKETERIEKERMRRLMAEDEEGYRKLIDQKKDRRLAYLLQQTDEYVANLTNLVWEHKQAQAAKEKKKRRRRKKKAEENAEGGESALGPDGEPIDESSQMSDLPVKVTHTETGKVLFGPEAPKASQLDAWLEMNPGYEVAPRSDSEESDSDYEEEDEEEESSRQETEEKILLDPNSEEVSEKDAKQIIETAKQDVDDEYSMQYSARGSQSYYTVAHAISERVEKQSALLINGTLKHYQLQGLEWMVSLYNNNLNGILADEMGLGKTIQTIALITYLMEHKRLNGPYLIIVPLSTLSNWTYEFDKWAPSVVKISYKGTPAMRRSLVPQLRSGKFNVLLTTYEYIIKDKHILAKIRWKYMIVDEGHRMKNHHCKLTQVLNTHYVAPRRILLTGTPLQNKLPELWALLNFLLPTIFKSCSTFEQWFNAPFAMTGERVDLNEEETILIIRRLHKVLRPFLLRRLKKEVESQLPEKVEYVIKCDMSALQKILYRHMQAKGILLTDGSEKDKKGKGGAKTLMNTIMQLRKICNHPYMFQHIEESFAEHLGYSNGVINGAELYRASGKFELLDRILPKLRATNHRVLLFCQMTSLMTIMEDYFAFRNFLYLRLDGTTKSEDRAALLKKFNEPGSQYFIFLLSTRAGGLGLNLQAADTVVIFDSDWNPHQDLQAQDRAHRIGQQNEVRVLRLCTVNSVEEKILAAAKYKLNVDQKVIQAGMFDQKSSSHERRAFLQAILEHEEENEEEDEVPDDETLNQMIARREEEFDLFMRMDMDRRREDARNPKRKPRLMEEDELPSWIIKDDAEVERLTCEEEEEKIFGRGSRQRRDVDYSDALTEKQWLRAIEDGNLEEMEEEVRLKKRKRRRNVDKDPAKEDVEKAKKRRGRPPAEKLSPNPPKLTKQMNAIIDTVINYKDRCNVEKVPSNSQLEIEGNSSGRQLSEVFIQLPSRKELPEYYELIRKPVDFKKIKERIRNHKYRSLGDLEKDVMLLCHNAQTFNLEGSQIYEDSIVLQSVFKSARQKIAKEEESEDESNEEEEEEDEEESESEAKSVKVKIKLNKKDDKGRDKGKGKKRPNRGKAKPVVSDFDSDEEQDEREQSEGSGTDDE

[4] = Counterscreen for activators of the function of SWI/SNF related, matrix associated, actin dependent regulator of chromatin, subfamily a, member 2 (SMARCA2, BRM): Luminescence-based cell-based high throughput dose response assay to identify non-selective compounds using the VP16 reporter assay.; type: functional
Vero = assay: mammalian cell viability reduction – secondary assay, cytotoxicity control for West Nile virus antiviral project, dose response (AID 1650); type: functional; details: Chlorocebus sabaeus
Melanocortin receptor 4 = Melanocortin receptor 4 (Homo sapiens, UniProt P32245); type: functional, cell-based;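 also: Cell-based assay with luminescence read-out, confirmatory dose-response testing for agonist activity of biased ligands at MC4R; human U2OS cells with tagged receptor and beta-arrestin; potency of agonists that increase receptor coupling to beta-arrestin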
Chain of Melanocortin receptor 4 (P32245 whole entry): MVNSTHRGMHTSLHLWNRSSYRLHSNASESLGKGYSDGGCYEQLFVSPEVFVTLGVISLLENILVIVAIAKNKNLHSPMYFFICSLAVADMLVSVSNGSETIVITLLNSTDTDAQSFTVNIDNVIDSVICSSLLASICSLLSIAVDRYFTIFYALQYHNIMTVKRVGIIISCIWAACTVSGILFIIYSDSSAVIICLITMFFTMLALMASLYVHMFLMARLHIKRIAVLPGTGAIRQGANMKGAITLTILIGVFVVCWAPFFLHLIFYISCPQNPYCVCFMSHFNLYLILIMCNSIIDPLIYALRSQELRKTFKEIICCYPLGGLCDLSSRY

[5] = biological target: T3, Beta-2 adrenergic receptor (Homo sapiens, UniProt P07550); assay: Dose response for HTS for Beta-2AR agonists via FAP method from Powderset1.; type: functional
T3 sequence (P07550 whole entry): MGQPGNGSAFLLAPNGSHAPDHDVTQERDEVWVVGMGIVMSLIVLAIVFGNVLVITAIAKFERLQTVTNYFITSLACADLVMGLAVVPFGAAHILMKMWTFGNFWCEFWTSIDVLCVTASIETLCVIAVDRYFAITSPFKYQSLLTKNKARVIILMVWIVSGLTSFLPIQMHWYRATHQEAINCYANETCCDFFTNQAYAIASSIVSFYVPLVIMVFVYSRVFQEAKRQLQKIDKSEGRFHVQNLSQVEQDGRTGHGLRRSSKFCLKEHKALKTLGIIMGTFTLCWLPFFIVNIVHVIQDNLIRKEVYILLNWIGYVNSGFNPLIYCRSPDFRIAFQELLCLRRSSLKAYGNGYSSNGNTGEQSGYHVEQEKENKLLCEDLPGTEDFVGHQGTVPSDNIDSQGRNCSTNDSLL

[6] = biological target: T3, Beta-2 adrenergic receptor; assay: ADRB2 activation measured by internalization – cell-based, FAP fluorogen, flow cytometry, cherry pick 1, dose response (AID 588763); type: functional
[7] = biological target: Tyrosine-protein phosphatase non-receptor type 11 (Homo sapiens, UniProt Q06124); assay: PTPN11 enzyme inhibitors – biochemical, selectivity assay for STEP inhibitor project, dose response (AID 602367); type: functional; details: read-out: IC50_Mean
[8] = biological target: Dual specificity protein phosphatase 3 (Homo sapiens, UniProt P51452); assay: VHR phosphatase inhibition, dose response, selectivity assay for STEP inhibitor project, biochemical (AID 602374); type: functional; details: read-out: IC50_Mean
Chain of Dual specificity protein phosphatase 3 (P51452 whole entry): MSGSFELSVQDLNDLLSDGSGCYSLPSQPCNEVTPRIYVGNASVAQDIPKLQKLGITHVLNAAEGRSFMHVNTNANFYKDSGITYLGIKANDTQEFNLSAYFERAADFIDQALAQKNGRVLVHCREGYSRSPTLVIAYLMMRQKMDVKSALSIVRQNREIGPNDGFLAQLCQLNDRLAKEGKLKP

[9] = biological target: Tyrosine-protein phosphatase non-receptor type 5 (Homo sapiens, UniProt P54829); assay: PTPN5 enzyme inhibition – biochemical, fluorescence intensity, uHTS hits, confirmation (AID 602372); type: functional; details: read-out: IC50_Mean
Chain of Tyrosine-protein phosphatase non-receptor type 5 (P54829 whole entry): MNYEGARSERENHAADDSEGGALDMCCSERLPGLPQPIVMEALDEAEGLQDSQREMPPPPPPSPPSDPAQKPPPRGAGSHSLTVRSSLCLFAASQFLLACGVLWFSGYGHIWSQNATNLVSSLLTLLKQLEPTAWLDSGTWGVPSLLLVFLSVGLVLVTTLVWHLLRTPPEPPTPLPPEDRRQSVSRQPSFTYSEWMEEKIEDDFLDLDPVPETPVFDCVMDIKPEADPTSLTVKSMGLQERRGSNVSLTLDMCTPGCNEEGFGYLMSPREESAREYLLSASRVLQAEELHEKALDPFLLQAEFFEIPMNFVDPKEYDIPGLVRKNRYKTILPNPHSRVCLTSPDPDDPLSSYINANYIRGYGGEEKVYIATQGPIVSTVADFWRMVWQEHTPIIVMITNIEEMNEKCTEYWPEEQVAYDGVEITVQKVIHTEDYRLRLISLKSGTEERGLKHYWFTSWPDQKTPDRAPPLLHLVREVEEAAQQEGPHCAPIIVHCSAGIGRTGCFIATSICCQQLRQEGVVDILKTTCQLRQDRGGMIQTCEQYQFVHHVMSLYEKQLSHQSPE

Structure (SMILES): Cc1cccc(N2CCN(C(=O)c3ccc4[nH]c(C)c(C)c4c3)CC2)c1C
IC50 [1]: > 80 µM (inactive) | IC50 (Beta-galactosidase): > 80 µM (inactive)

Structure (SMILES): O=C1c2ccccc2C(=O)c2c(NCCCN(CCO)CCO)cccc21
AC50 [2]: 977 nM (active) | IC50 (Aminopeptidase N): 77.7 µM (active) | EC50 [3]: > 10.1 µM (inactive) | EC50 [4]: > 91.2 µM (inactive) | CC50 (Vero): 13.9 µM (active)

Structure (SMILES): CCOC(=O)N1CCN(C(=O)CN(C)S(=O)(=O)c2ccc(Cl)cc2)CC1
EC50 [5]: 987 nM (active) | EC50 [6]: 1.95 µM (active)

Structure (SMILES): Clc1ccc(Cl)c(-c2nc(-c3ccncc3)no2)c1
IC50 [7]: 6.55 µM (active) | IC50 [8]: 25.4 µM (inactive) | IC50 [9]: > 80 µM (inactive)

Structure (SMILES): COc1ccc(NC(=S)N(CCCN2CCC(C)CC2)Cc2cccs2)cc1Cl
IC50 [7]: 6.76 µM (active) | IC50 [8]: 4.18 µM (active) | IC50 [9]: 55.6 µM (inactive)

Next, values leading:

EC50 (Melanocortin receptor 4): > 89.2 µM (inactive)
Structure (SMILES): COc1ccc2nc(NC(=O)CSc3nc4cccnc4n3C)sc2c1

IC50 (Beta-galactosidase): > 80 µM (inactive)
Structure (SMILES): CCc1ccc2oc(C(=O)N3CCN(c4ccc(OC)cc4)CC3)cc(=O)c2c1

Source: ChEMBL document CHEMBL1201862, “PubChem BioAssay data set” (2004)
